According to patent publication US20170088623A1, “Prophylaxis Against Cancer Metastasis” (Ingeneron, Inc., priority 2015, published 2017):

How the values were obtained:
CXCR4 receptor = conditions: animal and human studies; cited from earlier work
[1] = test system: LCN2 expression in SKBr3 cells; experiment: LCN2 levels in HER2+ SKBr3 cells by Western blotting; type: cell-based, human; conditions: SKBr3 cells incubated with inhibitor
Text: FIGS. 3A-D depict experiments showing that LCN2 (NGAL) is a down-stream target of the HER2/PI-3K/AKT/NF-κB pathway.
In addition, overexpression of dominant negative AKT led to reduced expression of LCN2, while overexpression of dominant active AKT increased LCN2 levels ([…]). […] Iannetti A, et al. “The neutrophil gelatinase-associated lipocalin (NGAL), a NF-kappaB-regulated gene, is a survival factor for thyroid neoplastic cells” Proc Natl Acad Sci USA 105(37) (2008) 14058.

Row | Structure (SMILES) | hematopoietic stem cell mobilization (CXCR4 receptor) | LCN2 expression [1]
1 | c1cc(CN2CCCNCCNCCCNCC2)ccc1CN1CCCNCCNCCCNCC1 [AMD3100] | able to induce hematopoietic stem cell mobilization | 
2 | Cc1ccc(S(=O)(=O)/C=C/C#N)cc1 [Bay11-7082] |  | reduced in a dose-dependent manner
